Reference: article PMC6273807, “Identification of Selective ERRγ Inverse Agonists” (Molecules, 2016)

How the values were obtained:
CYP2C19 = CYP2C19 (Homo sapiens, UniProt P33261); test: CYP inhibition assay, cocktail, human liver microsomes (S-mephenytoin 4-hydroxylase); type: in vitro ADME; conditions: 10 μM, activity in presence of inhibitor as % of control
CYP3A = test: CYP inhibition assay, cocktail, human liver microsomes (midazolam 1'-hydroxylase); type: in vitro ADME; conditions: 10 μM, activity in presence of inhibitor as % of control
[1] = Metabolic stability assay in liver microsomes (mouse); type: in vitro ADME; conditions: 1 μM, 30 min, 37 °C, NADPH
Method: (§1) The metabolic stability assay was performed by incubation of human and selected animal liver microsomes (most often dog, rat and mouse), at 37 °C with a test compound at a final concentration of 1 μM, in the presence of 0.5 mg/mL microsomal protein and NADPH regeneration system, in a total volume of 100 μL of 100 mM phosphate buffer, pH 7.4. The incubation was started by the addition of NADPH regeneration system and terminated with adding 40 μL of ice-cold acetonitrile at 0 and 30 min. […] Incubations terminated prior to addition of NADPH regeneration system (time point 0 min) were used as standards, defined as 100%. Percent of the parent compound remaining was calculated by comparing peak areas.

CYP2C9 = CYP2C9 (Homo sapiens, UniProt P11712); test: CYP inhibition assay, cocktail, human liver microsomes (tolbutamide 4-hydroxylase); type: in vitro ADME; conditions: 10 μM, human liver microsomes; activity in presence of inhibitor as % of control
CYP2D6 = CYP2D6 (Homo sapiens, UniProt P10635); test: CYP inhibition assay, cocktail, human liver microsomes (dextromethorphan O-demethylase); type: in vitro ADME; conditions: 10 μM, activity in presence of inhibitor as % of control
[2] = Metabolic stability assay in liver microsomes (human); type: in vitro ADME; conditions: 1 μM, 30 min, 37 °C, NADPH
Method: as §1

[3] = Metabolic stability assay in liver microsomes (dog); type: in vitro ADME; conditions: 1 μM, 30 min, 37 °C, NADPH
Method: as §1

CYP1A2 = target: T1, CYP1A2 (Homo sapiens, UniProt P05177); test: CYP inhibition assay, cocktail, human liver microsomes (phenacetin O-deethylase); type: in vitro ADME; conditions: 10 μM, activity in presence of inhibitor as % of control
T1 sequence (P05177 1-516): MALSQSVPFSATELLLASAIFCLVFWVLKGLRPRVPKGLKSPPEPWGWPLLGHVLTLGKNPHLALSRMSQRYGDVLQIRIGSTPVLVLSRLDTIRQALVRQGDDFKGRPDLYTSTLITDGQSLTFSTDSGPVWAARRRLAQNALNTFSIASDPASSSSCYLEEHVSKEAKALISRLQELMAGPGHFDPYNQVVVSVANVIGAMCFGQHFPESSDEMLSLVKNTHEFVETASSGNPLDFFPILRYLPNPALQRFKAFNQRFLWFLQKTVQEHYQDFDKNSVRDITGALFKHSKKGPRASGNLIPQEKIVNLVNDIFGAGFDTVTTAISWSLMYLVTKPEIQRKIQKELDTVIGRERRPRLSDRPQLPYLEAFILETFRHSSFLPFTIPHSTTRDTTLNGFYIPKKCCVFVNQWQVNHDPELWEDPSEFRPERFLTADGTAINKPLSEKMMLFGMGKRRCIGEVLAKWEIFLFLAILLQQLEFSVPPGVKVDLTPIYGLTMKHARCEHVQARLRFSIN

[4] = Metabolic stability assay in liver microsomes (rat); type: in vitro ADME; conditions: 1 μM, 30 min, 37 °C, NADPH
Method: as §1

ERRγ [5] = target: T2, ERRγ (Homo sapiens, UniProt P62508); test: ERRγ functional assay: GAL4-ERRγ luciferase reporter gene in AD293 cells; type: cell-based; conditions: for ERRγ functional activity in the cellular system (in words): 10 μM, reporter-gene assay, compared with control ligand 4; for inhibition at 10 µM: AD293, 24 h, screening concentration of 10 μM, read-out: transcriptional repression
T2 sequence (P62508 233-458 limits assumed): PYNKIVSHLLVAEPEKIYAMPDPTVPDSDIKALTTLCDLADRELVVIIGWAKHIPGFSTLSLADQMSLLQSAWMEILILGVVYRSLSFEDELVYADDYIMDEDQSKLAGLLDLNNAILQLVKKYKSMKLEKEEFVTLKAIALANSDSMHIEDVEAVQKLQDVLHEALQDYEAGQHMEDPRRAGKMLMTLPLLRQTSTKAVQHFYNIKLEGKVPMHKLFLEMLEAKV
Method: Along with the binding assay campaign, functional activity was determined in order to validate the utility of the binding affinity in a cellular context as described in the Experimental.
Figure 2 Cell based reporter-gene assay screening of 16 analogs ERRγ binding activity in cell was measured by luciferase activity using co-transfection system with GAL4-ERRγ and pFR-luciferase reporter gene.
AD293 cells were cultured in Dulbecco’ modified Eagle medium (DMEM) High glucose supplemented with 0.5% FBS (Hyclone, Logan, UT, USA). After 24 h, culture media was changed with DMEM High glucose containing 10% FBS. DNA constructs, which includes pCMX-Gal4-ERRγ, pFR-luciferase reporter plasmid, pCMV-β-gal were transiently transfected into AD293 cells using TransIT-LT1 transfection reagent (Mirus, Madison, WI, USA) for 24 h. Then, transfected cells were treated with compounds for 24 h and harvested for detection of luciferase activity and β-gal activity. All cells were incubated at 37 °C under 5% CO2 in a humidified incubator [5].

ERRγ [6] = target: T3, ERRγ (Homo sapiens, UniProt P62508); test: TR-FRET (LanthaScreen) ERRγ binding assay; conditions: Table 1 screening, 2-fold serial dilution from 10 μM; for IC50: read-out: ERRγ, IC50 (binding inhibition of ERRγ binding activity)
T3 construct: purchased Life Technologies
T3 sequence (P62508 233-457 limits assumed): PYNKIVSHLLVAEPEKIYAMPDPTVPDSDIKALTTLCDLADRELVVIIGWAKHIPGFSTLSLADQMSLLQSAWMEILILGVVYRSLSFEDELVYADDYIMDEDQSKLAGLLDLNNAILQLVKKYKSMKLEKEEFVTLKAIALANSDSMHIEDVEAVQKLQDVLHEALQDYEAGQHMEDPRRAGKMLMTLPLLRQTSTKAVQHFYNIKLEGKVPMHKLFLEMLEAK
Method: Initials creening was conducted using a well established TR-FRET based ERRγ binding assay as described in the Experimental section at a concentration of 10 μM. Serial dilutions of the synthesized compounds were used to calculate IC50 values for the binding affinity with ERRγ.
ERRγ binding assay was conducted with Lantascreen assay system (Life Technologies, Grand Island, NY, USA), which was based on TR-FRET, followed by manufacturer’s instruction. Briefly, compounds were serially diluted with 2-fold staring from 10 μM and 10 μL of each diluent was added in 384 well plate. Then, GST-conjugated ERRγ LBD (ligand-binding domain) was added to be 5 nM. Next, the mixture of fluorescien-conjugated coactivator PGC1a (final concentration to be 500 nM) and Tb-a-GST antibody (final concentration to be 5 nM) was added. The reaction mixture was incubated at rt in dark state for 1 h.

Chain of CYP2C9 (P11712 whole entry): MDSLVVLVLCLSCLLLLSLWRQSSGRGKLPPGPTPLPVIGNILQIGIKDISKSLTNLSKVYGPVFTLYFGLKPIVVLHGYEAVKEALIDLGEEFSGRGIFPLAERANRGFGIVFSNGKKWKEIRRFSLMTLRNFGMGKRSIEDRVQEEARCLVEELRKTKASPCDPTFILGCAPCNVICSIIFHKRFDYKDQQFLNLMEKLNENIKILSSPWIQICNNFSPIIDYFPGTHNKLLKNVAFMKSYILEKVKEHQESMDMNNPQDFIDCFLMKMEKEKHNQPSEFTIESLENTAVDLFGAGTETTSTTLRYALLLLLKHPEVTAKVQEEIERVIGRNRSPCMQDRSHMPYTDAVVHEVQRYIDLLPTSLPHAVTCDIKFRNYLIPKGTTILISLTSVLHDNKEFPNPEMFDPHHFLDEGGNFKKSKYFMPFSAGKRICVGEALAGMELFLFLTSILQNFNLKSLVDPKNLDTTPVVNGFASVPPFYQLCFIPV
Chain of CYP2D6 (P10635 whole entry): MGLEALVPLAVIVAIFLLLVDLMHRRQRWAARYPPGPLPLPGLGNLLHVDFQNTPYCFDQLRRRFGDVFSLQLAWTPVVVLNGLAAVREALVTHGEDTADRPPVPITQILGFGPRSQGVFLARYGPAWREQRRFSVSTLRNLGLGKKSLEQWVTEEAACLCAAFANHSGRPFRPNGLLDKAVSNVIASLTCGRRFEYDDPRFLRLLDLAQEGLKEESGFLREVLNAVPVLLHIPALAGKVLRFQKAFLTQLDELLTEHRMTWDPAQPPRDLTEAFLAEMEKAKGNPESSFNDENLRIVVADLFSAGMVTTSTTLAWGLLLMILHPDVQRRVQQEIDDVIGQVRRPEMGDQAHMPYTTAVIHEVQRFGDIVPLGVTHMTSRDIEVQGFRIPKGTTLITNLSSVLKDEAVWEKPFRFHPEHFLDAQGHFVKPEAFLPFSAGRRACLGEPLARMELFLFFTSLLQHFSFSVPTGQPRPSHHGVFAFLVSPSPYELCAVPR
Chain of CYP2C19 (P33261 whole entry): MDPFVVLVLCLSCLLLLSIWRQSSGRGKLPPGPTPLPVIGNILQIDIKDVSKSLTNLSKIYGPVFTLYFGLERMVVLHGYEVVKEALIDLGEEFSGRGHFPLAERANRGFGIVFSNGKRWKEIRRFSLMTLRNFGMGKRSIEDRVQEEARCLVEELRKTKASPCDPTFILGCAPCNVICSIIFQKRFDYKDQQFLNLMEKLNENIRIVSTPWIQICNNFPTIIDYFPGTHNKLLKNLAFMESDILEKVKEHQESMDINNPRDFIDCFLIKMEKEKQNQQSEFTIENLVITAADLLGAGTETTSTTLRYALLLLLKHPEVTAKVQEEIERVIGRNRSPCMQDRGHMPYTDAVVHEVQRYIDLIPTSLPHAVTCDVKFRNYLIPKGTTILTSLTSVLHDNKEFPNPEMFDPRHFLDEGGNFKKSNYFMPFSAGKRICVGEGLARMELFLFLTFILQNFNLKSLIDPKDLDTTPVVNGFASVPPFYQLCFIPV

CN(C)CCOc1ccc(/C(=C(/CCCO)c2ccccc2)c2ccc(O)cc2)cc1 [Compound 4, GSK5182, reference compound]
CYP Inhibition (% of Control), 2C19 (CYP2C19): 78 % of Control
CYP Inhibition (% of Control), 3A4 (CYP3A): 83 % of Control
MS (%), Mouse (percent of parent compound remaining) [1]: less than 10%
CYP Inhibition (% of Control), 2C9 (CYP2C9): 73 % of Control
CYP Inhibition (% of Control), 2D6 (CYP2D6): 82 % of Control
MS (%), Human (percent of parent compound remaining) [2]: 43%
MS (%), Dog (percent of parent compound remaining) [3]: less than 10%
CYP Inhibition (% of Control), 1A2 (CYP1A2): 84 % of Control
MS (%), Rat (percent of parent compound remaining) [4]: 26%

COCCC/C(=C(\c1ccc(O)cc1)c1ccc(OCCN(C)C)cc1)c1cccnc1 [Compound 13a, (Z)-4-(1-(4-(2-(Dimethylamino)ethoxy)phenyl)-5-methoxy-2-(pyridin-3-yl)pent-1-en-1-yl)phenol]
ERRγ functional activity in the cellular system (in words) (ERRγ [5]): comparable regression of the ERRγ transcriptional activity
IC50 (ERRγ [6]): 0.99 µM

COCCC/C(=C(\c1ccc(O)cc1)c1ccc(OCCN(C)C)cc1)c1ccncc1 [Compound 13b, (Z)-4-(1-(4-(2-(Dimethylamino)ethoxy)phenyl)-5-methoxy-2-(pyridin-4-yl)pent-1-en-1-yl)phenol]
inhibition at 10 µM (ERRγ [5]): ~50%
IC50 (ERRγ [6]): > 10 µM

COCCC/C(=C(\c1ccc(O)cc1)c1ccc(OCCN(C)C)cc1)c1cnn(C)c1 [Compound 13c, (Z)-4-(1-(4-(2-(Dimethylamino)ethoxy)phenyl)-5-methoxy-2-(1-methyl-1H-pyrazol-4-yl)pent-1-en-1-yl)-phenol]
inhibition at 10 µM (ERRγ [5]): ~50%
IC50 (ERRγ [6]): > 10 µM

CN(C)CCOc1ccc(/C(=C/CCCO)c2ccc(O)cc2)cc1 [Compound 15a, (E)-4-(1-(4-(2-(Dimethylamino)ethoxy)phenyl)-5-hydroxypent-1-en-1-yl)phenol]
inhibition at 10 µM (ERRγ [5]): ~0%
IC50 (ERRγ [6]): > 10 µM

CN(C)CCOc1ccc(/C(=C(/CCCO)c2ccc(O)cc2)c2ccc(O)cc2)cc1 [Compound 15b, (Z)-4,4′-(1-(4-(2-(Dimethylamino)ethoxy)phenyl)-5-hydroxypent-1-ene-1,2-diyl)diphenol]
IC50 (ERRγ [6]): 2.32 µM

COc1ccc(/C(CCCO)=C(/c2ccc(O)cc2)c2ccc(OCCN(C)C)cc2)cn1 [Compound 15c, (Z)-4-(1-(4-(2-(Dimethylamino)ethoxy)phenyl)-5-hydroxy-2-(6-methoxypyridin-3-yl)pent-1-en-1-yl)phenol]
inhibition at 10 µM (ERRγ [5]): ~50%
IC50 (ERRγ [6]): > 10 µM

CN(C)CCOc1ccc(/C(=C(/CCCO)c2cccnc2)c2ccc(O)cc2)cc1 [Compound 15d, (Z)-4-(1-(4-(2-(Dimethylamino)ethoxy)phenyl)-5-hydroxy-2-(pyridin-3-yl)pent-1-en-1-yl)phenol]
IC50 (ERRγ [6]): 3.1 µM

CN(C)CCOc1ccc(/C(=C(/CCCO)c2ccnc(F)c2)c2ccc(O)cc2)cc1 [Compound 15e, (Z)-4-(1-(4-(2-(Dimethylamino)ethoxy)phenyl)-2-(2-fluoropyridin-4-yl)-5-hydroxypent-1-en-1-yl)phenol]
ERRγ functional activity in the cellular system (in words) (ERRγ [5]): comparable regression of the ERRγ transcriptional activity
IC50 (ERRγ [6]): 5.35 µM

CN(C)CCOc1ccc(/C(=C(/CCCO)c2ccc(N3CCOCC3)nc2)c2ccc(O)cc2)cc1 [Compound 15f, (Z)-4-(1-(4-(2-(Dimethylamino)ethoxy)phenyl)-5-hydroxy-2-(6-morpholinopyridin-3-yl)pent-1-en-1-yl)phenol]
ERRγ functional activity in the cellular system (in words) (ERRγ [5]): partial agonistic activity
IC50 (ERRγ [6]): > 10 µM

CN(C)CCOc1ccc(/C(=C(/CCCO)c2ccc3nccn3c2)c2ccc(O)cc2)cc1 [Compound 15i, (Z)-4-(1-(4-(2-(Dimethylamino)ethoxy)phenyl)-5-hydroxy-2-(imidazo[1,2-a]pyridin-6-yl)pent-1-en-1-yl)phenol]
inhibition at 10 µM (ERRγ [5]): ~0%
IC50 (ERRγ [6]): > 10 µM

CN(C)CCOc1ccc(/C(=C(/CCCO)c2ccc3ccncc3c2)c2ccc(O)cc2)cc1 [Compound 15j, (Z)-4-(1-(4-(2-(Dimethylamino)ethoxy)phenyl)-5-hydroxy-2-(isoquinolin-7-yl)pent-1-en-1-yl)phenol]
IC50 (ERRγ [6]): 4.71 µM

COCCC/C(=C(\c1ccc(O)cc1)c1ccc(OCCN(C)C)c(C(F)(F)F)c1)c1cccnc1 [Compound 16]
inhibition at 10 µM (ERRγ [5]): ~0%
ERRγ, IC50 (binding inhibition of ERRγ binding activity) (ERRγ [6]): no affinity
IC50 (ERRγ [6]): > 10 µM

COCCC/C(=C(\c1ccc(O)cc1)c1ccc(OCCN(C)C)cc1)c1ccc(C(C)C)nc1 [Compound 17, (Z)-4-(1-(4-(2-(Dimethylamino)ethoxy)phenyl)-2-(6-isopropylpyridin-3-yl)-5-methoxypent-1-en-1-yl)phenol]
inhibition at 10 µM (ERRγ [5]): ~50%
IC50 (ERRγ [6]): > 10 µM
